Literature values as cited in patent publication US8431151B2, “Antimicrobial nanostructured hydrogel web containing silver” (Syracuse University, priority 2009, dated 2013).

How the values were obtained:
[1] = system: mouse bone marrow cells; details: 4 μg/mL silver (Ag^+)
[2] = system: 16 bacterial species including Escherichia coli, Pseudomonas aeruginosa, and Staphylococcus aureus; details: 16 bacterial species tested

[Ag+] [silver (Ag^+)]
detrimental effects to mouse bone marrow cells [1]: does not exhibit any obvious detrimental effects | silver concentration at which bacterial species are inhibited [2]: 1.25 µg/mL
